Usually IC50 stands for the midpoint of a concentration-inhibition curve. In general, Ki refers to a dissociation constant, usually derived from enzyme kinetics or from competition with a known ligand.

Here are results for 16 molecules from ChEMBL document CHEMBL3400050, “The synthesis and evaluation of sesamol and benzodioxane derivatives as inhibitors of monoamine oxidase” (Bioorg Med Chem Lett, 2015).

The target of data set [1] is T1, Amine oxidase [flavin-containing] A (Homo sapiens, UniProt P21397).
T1 sequence (P21397 whole entry): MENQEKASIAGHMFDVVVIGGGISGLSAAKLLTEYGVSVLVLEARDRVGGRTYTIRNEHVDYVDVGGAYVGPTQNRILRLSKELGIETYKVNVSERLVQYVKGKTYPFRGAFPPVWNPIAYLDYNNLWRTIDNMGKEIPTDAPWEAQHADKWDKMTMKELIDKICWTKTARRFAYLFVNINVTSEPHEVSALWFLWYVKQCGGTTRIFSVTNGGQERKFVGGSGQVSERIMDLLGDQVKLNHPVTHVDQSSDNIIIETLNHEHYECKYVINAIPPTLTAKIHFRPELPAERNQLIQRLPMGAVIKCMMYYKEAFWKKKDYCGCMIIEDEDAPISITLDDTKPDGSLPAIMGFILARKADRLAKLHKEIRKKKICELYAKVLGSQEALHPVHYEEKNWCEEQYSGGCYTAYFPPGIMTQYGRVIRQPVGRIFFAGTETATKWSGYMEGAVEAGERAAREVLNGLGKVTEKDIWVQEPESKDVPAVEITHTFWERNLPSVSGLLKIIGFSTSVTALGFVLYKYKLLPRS
The experiment in a line: Inhibition of human recombinant MAOA using kynuramine substrate assessed as reduction in MAO-generated 4-hydroxyquinoline level by fluorescence spectrophotometry.

In data set [2] the target is T2, Amine oxidase [flavin-containing] B (Homo sapiens, UniProt P27338).
T2 sequence (P27338 whole entry): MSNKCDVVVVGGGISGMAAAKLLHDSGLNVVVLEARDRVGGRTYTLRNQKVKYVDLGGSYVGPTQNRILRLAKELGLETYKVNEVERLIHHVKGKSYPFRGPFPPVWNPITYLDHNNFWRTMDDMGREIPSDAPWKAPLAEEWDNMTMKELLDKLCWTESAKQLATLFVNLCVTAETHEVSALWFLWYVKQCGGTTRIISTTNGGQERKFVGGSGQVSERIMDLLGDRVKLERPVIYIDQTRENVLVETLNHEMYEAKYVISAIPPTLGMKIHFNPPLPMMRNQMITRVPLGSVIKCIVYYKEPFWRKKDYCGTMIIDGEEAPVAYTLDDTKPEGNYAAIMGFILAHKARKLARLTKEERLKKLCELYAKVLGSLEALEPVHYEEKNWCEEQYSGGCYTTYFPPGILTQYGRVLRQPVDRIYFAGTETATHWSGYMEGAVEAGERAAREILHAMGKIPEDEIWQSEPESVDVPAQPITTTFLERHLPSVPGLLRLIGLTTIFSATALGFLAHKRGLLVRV
The experiment in a line: Inhibition of human recombinant MAOB using kynuramine substrate assessed as reduction in MAO-generated 4-hydroxyquinoline level by fluorescence spectrophotometry.

The species entered for the next data set is Homo sapiens. The experiment in a line: Selectivity index, ratio of IC50 for human recombinant MAOA to IC50 for human recombinant MAOB.
For data set [3], the target named is T1, Amine oxidase [flavin-containing] A. The experiment in a line: Inhibition of human recombinant MAOA at 100 uM using kynuramine substrate assessed as reduction in MAO-generated 4-hydroxyquinoline level by fluorescence spectrophotometry.
Data set [4] concerns the target T2, Amine oxidase [flavin-containing] B. The experiment in a line: Reversible inhibition of human recombinant MAOB pre-incubated for 15 mins at 4 times IC50 level subsequently dialysed for 24 hrs followed by two fold dilution with kynuramine substrate assessed as enzyme catalytic activity by measuring 4-hydroxyquinoline level after 20 mins by fluorescence spectrophotometry. Further details: scale not given: the % may be the effect or the level left; call rule not given here.

For data set [5] the target is unchanged. The experiment in a line: Reversible inhibition of human recombinant MAOB pre-incubated for 15 mins at 4 times IC50 level using kynuramine substrate assessed as enzyme catalytic activity by measuring 4-hydroxyquinoline level after 20 mins by fluorescence spectrophotometry. More on the design: scale not given: the % may be the effect or the level left.
For data set [6] the target is unchanged. The experiment in a line: Competitive inhibition of human recombinant MAOB using kynuramine substrate assessed as reduction in MAO-generated 4-hydroxyquinoline level by Lineweaver-Burk plot.

For `Brc1cccc(COc2ccc3c(c2)OCO3)c1`, the IC50 is 38.4 µM in data set [1] and 0.164 µM in data set [2]. Moreover, the Ratio IC50 in the data set filed under Homo sapiens came out at 234.
The matching figures for `c1ccc(COc2ccc3c(c2)OCCO3)cc1`: 36 µM, 0.168 µM and 215.
For the molecule `Clc1cccc(COc2ccc3c(c2)OCO3)c1`, the figures for the 50% inhibitory concentration (IC50) in data set [1] and in data set [2] were 51.8 µM and 0.248 µM, respectively. For the same molecule, the Ratio IC50 in the data set filed under Homo sapiens was found to be 209.
`c1ccc(OCCOc2ccc3c(c2)OCO3)cc1`: the “inhibition (INH)” value in data set [3] is “Not Active”. Besides, the IC50 in data set [2] was 1.14 µM. Moreover, in the data set listed under Homo sapiens, the Ratio IC50 is above 88.
`Clc1cccc(COc2ccc3c(c2)OCCO3)c1`: the 50% inhibitory concentration (IC50) worked out at 13.2 µM in data set [1] and 0.057 µM in data set [2]. In addition, the Ratio IC50 in the data set listed under Homo sapiens was 232.
In the case of `Brc1cccc(COc2ccc3c(c2)OCCO3)c1`, the half-maximal inhibitory concentration (IC50) in data set [1] amounted to 16.9 µM; in data set [2], 0.045 µM. For the same molecule, the Ratio IC50 in the data set listed under Homo sapiens amounted to 375. For the same molecule, the Activity in data set [4] is 87%; in data set [5], 21%. Also, the inhibition constant Ki in data set [6] is 0.041 µM.
In the case of `Clc1ccc(OCCOc2ccc3c(c2)OCO3)cc1`, the “inhibition (INH)” value in data set [3] is reported as “Not Active”. In data set [2], the half-inhibitory concentration (IC50) worked out at 1.69 µM. Also, the Ratio IC50 in the data set listed under Homo sapiens was above 59.
For the molecule `Brc1ccc(OCCOc2ccc3c(c2)OCCO3)cc1`, the “inhibition (INH)” value in data set [3] is on record as “Not Active”. The concentration for half-maximal inhibition (IC50) in data set [2] amounted to 0.941 µM. In addition, in the data set filed under Homo sapiens, the Ratio IC50 was above 106.
Consider `c1ccc(COc2ccc3c(c2)OCO3)cc1`, for which the “inhibition (INH)” value in data set [3] is on record as “Not Active”. Besides, the 50% inhibitory concentration (IC50) in data set [2] came out at 0.513 µM. The Ratio IC50 in the data set listed under Homo sapiens is above 195.
The matching figures for `Clc1ccc(OCCOc2ccc3c(c2)OCCO3)cc1`: “Not Active”, 0.348 µM and above 287.
Consider `c1ccc(OCCOc2ccc3c(c2)OCCO3)cc1`, for which the half-maximal inhibitory concentration (IC50) in data set [1] was 69.4 µM; in data set [2], 0.109 µM. In the data set filed under Homo sapiens, the Ratio IC50 came out at 637.
For `c1ccc(CCCOc2ccc3c(c2)OCO3)cc1`, the concentration for half-maximal inhibition (IC50) in data set [1] stood at 77.1 µM; in data set [2], 7.29 µM. Besides, in the data set filed under Homo sapiens, the Ratio IC50 stood at 11.
`c1ccc(CCOc2ccc3c(c2)OCCO3)cc1`: the 50% inhibitory concentration (IC50) was 27.8 µM in data set [1] and 0.048 µM in data set [2]. In addition, in the data set filed under Homo sapiens, the Ratio IC50 was 579.
With `c1ccc(CCCOc2ccc3c(c2)OCCO3)cc1`, the half-maximal inhibitory concentration (IC50) in data set [1] was determined as 70.4 µM; in data set [2], 0.947 µM. In addition, in the data set filed under Homo sapiens, the Ratio IC50 was 74.
For the molecule `Brc1ccc(OCCOc2ccc3c(c2)OCO3)cc1`, the “inhibition (INH)” value in data set [3] is reported as “Not Active”. Moreover, in data set [2], the half-maximal inhibitory concentration (IC50) was determined as 7.07 µM. Besides, the Ratio IC50 in the data set filed under Homo sapiens is above 14.
For `c1ccc(CCOc2ccc3c(c2)OCO3)cc1`, the IC50 in data set [1] was 87.7 µM; in data set [2] it was 3.31 µM. Further, in the data set listed under Homo sapiens, the Ratio IC50 is 26.
